The record followed here is patent US20230381215A1, “NOVEL COMBINATION TREATMENT FOR ACUTE MYELOID LEUKEMIA (AML)” (Hoffmann-La Roche Inc., priority 2013, published 2023).

Data set [1] concerns MOLM-13.luc.c4 (MOLM-13 human AML cells). Description: Antitumor efficacy and survival/increase in life span (ILS) in disseminated MOLM-13.luc.c4 AML model. It counts as in vivo, SCID beige mice. As to conditions: for tumor burden by BLI photon counts compared to Vehicle-treated control (FIG. 1) / antitumor activity as assessed by tumor burden (BLI) or ILS: monotherapy; for tumor burden by BLI photon counts compared to Vehicle-treated control (FIG. 1): treatment initiated on day 3. As for the experimental part: (§1) Female SCID beige mice (10/group), obtained from Charles River Laboratories (Wilmington, DE) were used when they were approximately 8-12 weeks old and weighed approximately 20-25 grams. The health of the mice was assessed daily by gross observation and analyses of blood samples taken from sentinel animals housed on shared shelf racks. All animals were allowed to acclimate and recover from any shipping-related stress for a minimum of 72 hours prior to experimental use. Autoclaved water and irradiated food (5058-ms Pico Lab mouse chow, Purina Mills, Richmond, IN) were provided ad libitum, and the animals were maintained on a 12 hour light and dark cycle. Cages, bedding and water bottles were autoclaved before use and changed weekly. All animal experiments were conducted in accordance with the Guide for the Care and Use of Laboratory Animals, local regulations, and protocols approved by the Roche Animal Care and Use Committee in an AAALAC accredited facility.
Parental MOLM-13 human AML cells were stably transfected with Luc2 lentiviral particles for 24 hrs in the presence of Polybrene (8 ug/ml) and then selected in the presence of Blasticidin for 3 weeks. Subsequently, one clone was selected by single cell plating in the presence of 0.1 mg/mL G418 and was designated MOLM-13.luc.c4. The lentiviral Luc2 expression plasmid was constructed by incorporating Luc2 gene (Promega) in to pLOC lentiviral plasmid backbone (Thermo Fisher Scientific). Luc2 lentiviral particles were prepared by using Trans-Lentiviral Packaging System (Thermo Fisher Scientific) as recommended.
MOLM-13.luc.c4 was maintained with RPMI 1640 with L-glutamine (2 mM) media (GIBCO/Invitrogen, Carlsbad, CA) supplemented with 10% heat-inactivated Fetal Bovine Serum (HI-FBS; GIBCO/Invitrogen, Carlsbad, CA), and 1% 100 mM sodium pyruvate. Freshly dissociated MOLM13-Luc.c4 cells (1×106 or 5×106) suspended in Phosphate Buffered Saline (PBS) were then intravenously inoculated via the caudal tail vein into female SCID-beige mice.
It was then filtered thru a 0.22 micron filter into a septum sealed vial for intravenous administration. […] Stock cytarabine (Ara-C injection, 100 mg/ml) was diluted in sterile 0.9% sodium chloride to 44 mg/ml according to manufacturer's instructions and dosed at 200 mg/kg iv twice weekly.
Treatment duration was 3 weeks.
(§2) For increased life span (ILS) assessment, animal body weights were measured two to three times per week, and animals were monitored daily for any clinical signs of toxicity or excessive tumor burden (i.e. hind limb paralysis or morbidity). In addition, progression of disease was monitored by in vivo bioluminescent imaging (BLI) using IVIS® Spectrum system. For each BLI session, mice received 100 mg/kg D-luciferin (Caliper Life Sciences/Perkin-Elmer) via ip injections and were imaged at 20 min post luciferin injection at either a 5 s or a 10 s exposure time. Images were captured by the IVIS® Spectrum system and data were collected and analyzed with Living Image 4.2.0 software (Caliper Life Sciences, Hopkinton, MA). Total photon fluxes (ph/s) representing luciferase activity within each fixed region of interest (ROI) covering whole tumors of individual mice were determined. The actual images of mice are not disclosed herein.
Quantification of bioluminescence allowed for direct longitudinal comparison of tumor burden between treatment groups prior to surrogate death end points being reached. Tumor burden was graphically represented as the mean BLI photon flux+standard error of the mean (SEM), and median survival was determined utilizing Kaplan Meier survival analysis. Statistical analysis of comparisons between groups was analyzed by two-way ANOVA, and post-hoc Bonferroni test (GraphPad Prism, version 4.3). Differences between groups were considered to be significant when the probability value (p) was ≤0.05.

For data set [2] the following is noted: Ara-C 200 mg/kg 2×/week iv; 10/group. As for the experimental part:
as §1, with “Cages, bedding and water bottles were autoclaved before use and changed weekly. All animal experiments were conducted in accordance with the Guide for the Care and Use of Laboratory Animals, local regulations, and protocols approved by the Roche Animal Care and Use Committee in an AAALAC accredited facility.” left out
as §2, with “For each BLI session, mice received 100 mg/kg D-luciferin (Caliper Life Sciences/Perkin-Elmer) via ip injections and were imaged at 20 min post luciferin injection at either a 5 s or a 10 s exposure time.” left out, “The actual images of mice are not disclosed herein.” left out

For `COc1cc(C(=O)O)ccc1NC(=O)[C@@H]1N[C@@H](CC(C)(C)C)[C@](C#N)(c2ccc(Cl)cc2F)[C@H]1c1cccc(Cl)c1F` [compound (A), 4-{[(2R,3S,4R,5S)-4-(4-Chloro-2-fluoro-phenyl)-3-(3-chloro-2-fluoro-phenyl)-4-cyano-5-(2,2-dimethyl-propyl)-pyrrolidine-2-carbonyl]-amino}-3-methoxy-benzoic acid], the “% ILS vs. Vehicle control” value in data set [1] (Cpd (A) 80 mg/kg qd × 5 po) is reported as “*37%”; in data set [1] (Cpd (A) 100 mg/kg q7d po), “*22%”. For the same molecule, the figures for the “Median survival” value in data set [1] (Cpd (A) 80 mg/kg qd × 5 po) and in data set [1] (Cpd (A) 100 mg/kg q7d po) were 28 days and 25 days, respectively.
Turning to “4-{[(2R,3S,4R,5S)-3-(3-Chloro-2-fluoro-phenyl)-4-(4-chloro-2-fluoro-phenyl)-4-cyano-5-(2,2-dimethyl-propyl)-pyrrolidine-2-carbonyl]-amino}-3-methoxy-benzoic acid 1-mPEG-carbonyloxy-ethyl ester (mPEG, average MW, 2200) [compound I-B]”, the “% ILS vs. Vehicle control” value in data set [1] (Cpd I-B 437 mg/kg q7d iv) is reported as 37%; in data set [1] (Cpd I-B 437 mg/kg q7d iv, listed as Cpd I-B), “*37%”. Also, the “Median survival” value in data set [1] (Cpd I-B 437 mg/kg q7d iv, 5 million cells, treatment from day 3) turned out to be 28 days. Besides, the “tumor burden by BLI photon counts compared to Vehicle-treated control (FIG. 1)” value in data set [1] (5 million cells) is on record as “significantly reduced photon counts”.
As to `Nc1ccn([C@@H]2O[C@H](CO)[C@@H](O)[C@@H]2O)c(=O)n1` [Ara-C, cytarabine, reference compound], in data set [1] (Ara-C 200 mg/kg 2×/wk iv), the “% ILS vs. Vehicle control” value stood at 0% and the “Median survival” value is listed as 20 days. In addition, the “antitumor activity as assessed by tumor burden (BLI) or ILS” value in data set [1] is reported as “lack of monotherapy activity”. In data set [1] (5 million cells), the “tumor burden by BLI photon counts compared to Vehicle-treated control (FIG. 1)” value is recorded as “no difference”. Further, the “antitumor activity as assessed by tumor burden (BLI) or ILS” value in data set [1] (listed as Cytarabine (Ara-C)) is reported as “lack of antitumor activity”. Also, the Mortality in data set [2] is recorded as 0.
